Assay results published in article PMC2551328 (Biochemistry, 2008).
Where “and” joins values, the source holds several entries; their conditions need not be identical. Equal entries are not always repeated. Where two headings read alike, the source gives them in different places.

Tests used:
M.tb PGDH (Native) [1] = molecular target: T1, M.tb PGDH (Native) (Mycobacterium tuberculosis, UniProt P9WNX3); type: biochemical
T1 sequence (P9WNX3 1-528): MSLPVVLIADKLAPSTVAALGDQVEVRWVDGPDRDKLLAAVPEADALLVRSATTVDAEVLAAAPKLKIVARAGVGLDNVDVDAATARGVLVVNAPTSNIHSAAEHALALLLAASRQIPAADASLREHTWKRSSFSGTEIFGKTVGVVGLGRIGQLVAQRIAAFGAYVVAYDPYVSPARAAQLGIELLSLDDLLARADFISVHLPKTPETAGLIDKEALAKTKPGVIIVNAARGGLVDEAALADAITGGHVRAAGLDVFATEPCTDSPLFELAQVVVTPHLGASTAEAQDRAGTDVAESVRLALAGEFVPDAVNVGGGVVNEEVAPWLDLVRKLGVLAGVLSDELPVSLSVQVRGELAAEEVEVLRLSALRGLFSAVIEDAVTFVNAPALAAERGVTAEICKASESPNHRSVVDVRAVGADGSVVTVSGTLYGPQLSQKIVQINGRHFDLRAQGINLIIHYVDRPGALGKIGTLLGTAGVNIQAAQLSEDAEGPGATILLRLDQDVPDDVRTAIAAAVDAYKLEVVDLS

M.tb PGDH = molecular target: T2, M.tb PGDH (Mycobacterium tuberculosis, UniProt P9WNX3); type: binding
T2 sequence (P9WNX3 1-528): T1 sequence (P9WNX3 1-528)

chicken liver PGDH = conditions: cited from earlier work
Human PGDH = Human PGDH (Homo sapiens, UniProt O43175); assay: Serine effect on human PGDH; type: biochemical; conditions: unpublished result
PGDH from B. subtilis = conditions: read-out: IC50 (serine); cited from earlier work
E. coli PGDH [2] = conditions: read-out: IC50 for L-serine; cited from earlier work
PGDH from C. glutamicum = conditions: read-out: IC50 (serine); cited from earlier work
rat liver PGDH = conditions: cited from earlier work
E. coli PGDH [3] = conditions: read-out: Kd (NADH), without cooperativity; cited from earlier work
M.tb PGDH (Native) [4] = molecular target: T1, M.tb PGDH (Native); conditions: read-out: Km (NADH), homotropic positive cooperativity; cited from earlier work

Chain of Human PGDH (O43175 whole entry): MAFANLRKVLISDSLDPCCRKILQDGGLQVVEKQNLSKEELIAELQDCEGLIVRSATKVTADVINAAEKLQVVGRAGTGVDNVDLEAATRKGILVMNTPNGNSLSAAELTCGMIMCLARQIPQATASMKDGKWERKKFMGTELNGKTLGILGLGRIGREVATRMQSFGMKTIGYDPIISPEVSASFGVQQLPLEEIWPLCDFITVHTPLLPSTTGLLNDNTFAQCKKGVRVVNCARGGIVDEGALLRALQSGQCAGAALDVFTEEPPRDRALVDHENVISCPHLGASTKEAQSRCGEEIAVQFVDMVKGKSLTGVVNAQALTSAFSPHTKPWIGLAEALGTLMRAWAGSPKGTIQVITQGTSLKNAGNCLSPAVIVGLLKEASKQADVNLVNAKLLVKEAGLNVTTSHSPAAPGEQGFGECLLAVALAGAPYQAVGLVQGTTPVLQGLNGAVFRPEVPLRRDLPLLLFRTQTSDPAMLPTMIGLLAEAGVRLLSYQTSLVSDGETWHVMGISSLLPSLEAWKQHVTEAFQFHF

O=C(O)C(=O)COP(=O)(O)O [HPAP, hydroxypyruvic acid phosphate]
Ki (M.tb PGDH (Native) [1]): 950 ± 120 µM | kcat (M.tb PGDH (Native) [1]): 2461 ± 281 s⁻¹ | Km (M.tb PGDH (Native) [1]; pH 7.5): 170 ± 50 µM | HPAP binding transient (enzyme fluorescence increase) (M.tb PGDH): rapid binding

N[C@@H](CO)C(=O)O [L-serine, reference compound]
Hill Coefficient (M.tb PGDH (Native) [1]): […] | effect of serine on enzyme activity (chicken liver PGDH): no effect | effect of serine on enzyme activity (Human PGDH): not inhibited | effect of serine on enzyme activity (Human PGDH; listed as serine): not affected | IC50 (PGDH from B. subtilis): ~600 µM | IC50 (E. coli PGDH [2]): […] | IC50 (PGDH from C. glutamicum): ~10000 µM | effect of serine on enzyme activity (rat liver PGDH): no effect

NC(=O)C1=CN([C@@H]2O[C@H](COP(=O)(O)OP(=O)(O)OC[C@H]3O[C@@H](n4cnc5c(N)ncnc54)[C@H](O)[C@@H]3O)[C@@H](O)[C@H]2O)C=CC1 [NADH]
NADH concentration needed to produce a rate equal to the kcat (M.tb PGDH): at least 65 mM | on-rate for NADH binding (M.tb PGDH): occurs within the dead-time of the instrument | on-rates for NADH binding (M.tb PGDH): zero | off-rate of NADH binding (M.tb PGDH; pH 7.5): 0.34 sec ^−1 and 0.21 sec ^−1 | Kd (M.tb PGDH; read-out: Kd for NADH binding): 15 to 30 µM | Kd (E. coli PGDH [3]): < 0.5 µM | Km (M.tb PGDH (Native) [4]): ~50 µM

O=C(O)C(O)COP(=O)(O)O [phosphoglyceric acid, D-3-phosphoglyceric acid]
effect on the rate of NADH binding (M.tb PGDH): did not significantly enhance
